# Data reported in US20260166046A1, “Inhibitors of methionine aminopeptidase-2 and methods of preparation and uses thereof” (Primetime Life Sciences LLC, priority 2022, published 2026).
# Where two headings read alike, the source gives them in different places.
# Key:
# G. lamblia WB = test: Trophozoite viability IC50 determination, Giardia assay (ATPLite); format: cell-based; conditions: Giardia duodenalis, read-out: Cell viability values Mean IC50 (nM) G. lamblia WB
# Method: (§1) Giardia cultures: Trophozoites of G. lamblia isolates WB and GS were grown anaerobically in borosilicate glass screw-cap culture tubes (Fisher Scientific) at pH 7.0 in modified TYI-S-33 medium. The medium was supplemented with 10% heat-inactivated bovine serum (Sigma-Aldrich) and 0.05% bovine bile (Sigma-Aldrich). To attain low-oxygen-tension conditions, the tubes were filled to 85 to 90% of their total volume capacity and incubated without shaking at 37° C. Subcultures (2×10^5 trophozoites per tube) were made three times a week. Detachment of trophozoites for inoculation was achieved by chilling the cultures on ice for 20 min. Culturing and detachment of Metronidazole-resistant G. lamblia Assemblage A 713M3 and assemblage B 1279-M1 trophozoites followed the same protocol, except that the growth medium was supplemented with metronidazole gradually increasing the concentration to 10 μM. Amebae cultures: E. histolytica strain HM1:IMSS trophozoites were grown at 37° C. in TYI-S-33 medium supplemented with penicillin (100 U/mL) and streptomycin sulfate (100 μg/mL). Trophozoites were grown anaerobically in borosilicate tubes and subcultures were made 1-2 times a week. Trophozoites were detached for inoculation by chilling the cultures on ice for 20 minutes.
# (§2) Trophozoite viability IC50determination
# (§3) Giardia assays: 10 μL giardia trophozoites in growth medium were plated at a density of 10,000 cells/well in sterile 96-well black clear bottom assay plates. Fumagillin and fumagillol derivatives were 1:3 serially diluted from a 1 μM DMSO stock solution and then 100 μL/well were transferred in duplicate to the assay wells. Metronidazole (control) was 1:3 serially diluted in growth medium from a 100 μM stock solution in DMSO. The assay plates were placed in a BD GasPak™ EZ Container System (BD Diagnostics) to create an anaerobic growth environment. The sealed containers were incubated at 37° C. for 72 hr. Following incubation, 70 μL/well of the ATPLite reagent (PerkinElmer) was added to the assay plates for one-step lysis and ATP level detection. The luminescent signals of the assay plates were measured on an EnSpire 2300 plate reader (PerkinElmer). Concentration response titration points for each compound were fitted to a 4-parameters logistic nonlinear regression model using KaleidaGraph, yielding the IC50value and standard error (SE).
# G. lamblia GS = test: as above; format: cell-based; conditions: read-out: Cell viability values Mean IC50 (nM) G. lamblia GS
# Method: as §1, §2, §3
# E. histolytica HM1: IMSS = test: Trophozoite viability IC50 determination, Amebae assay (ATPLite); format: cell-based; conditions: Entamoeba histolytica, read-out: Cell viability values Mean IC50 (nM) E. histolytica HM1: IMSS
# Method: as §1, §2, §3
# Amebae assays: The protocol is identical to that described above except that the trophozoites were plated at a density of 5000 cells/well because of their larger size.
# Recombinant human MetAP2 = target: T1, Recombinant human MetAP2 (Homo sapiens, UniProt P50579); test: MetAP2 fluorescence assay; format: biochemical; conditions: recombinant human MetAP2, H-Met-Gly-Pro-AMC substrate
# T1 construct: purchased Bio-Techne/R&D systems
# T1 sequence (P50579 whole entry): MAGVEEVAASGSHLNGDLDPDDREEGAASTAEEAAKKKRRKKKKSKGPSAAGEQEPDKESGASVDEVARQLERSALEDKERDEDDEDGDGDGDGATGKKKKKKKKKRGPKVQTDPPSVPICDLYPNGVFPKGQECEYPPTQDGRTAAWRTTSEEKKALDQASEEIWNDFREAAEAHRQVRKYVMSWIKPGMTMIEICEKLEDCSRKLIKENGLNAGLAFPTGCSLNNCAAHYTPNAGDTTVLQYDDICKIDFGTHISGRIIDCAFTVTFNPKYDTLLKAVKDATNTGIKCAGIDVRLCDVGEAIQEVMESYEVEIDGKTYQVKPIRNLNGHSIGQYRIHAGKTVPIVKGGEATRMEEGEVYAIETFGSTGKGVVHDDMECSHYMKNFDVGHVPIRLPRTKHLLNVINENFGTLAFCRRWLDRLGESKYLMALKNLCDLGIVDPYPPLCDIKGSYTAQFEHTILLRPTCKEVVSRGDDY
# Method: MetAP2 Fluorescence Assay
# Recombinant human MetAP2 (Bio-Techne/R&D systems) was diluted to 10 μg/mL in the assay buffer (50 mM HEPES, 0.1 mM CoCl2, 100 mM NaCl, pH 7.5). The substrate, H-Met-Gly-Pro-AMC (Bio-Techne/R&D systems), was diluted to 500 μM with 2 μg/mL of the coupling enzyme, recombinant human dipeptidyl peptidase-4 (Bio-Techne/R&D systems), in assay buffer. 50 μL of 10 μg/mL recombinant human METAP2 were loaded into a flat-bottom black 96-well plate (Greiner Bio), and the reaction was initiated by adding 50 μL of the substrate/dipeptidyl peptidase-4 mixture. The reaction mixture was incubated at room temperature for 10 minutes, and the fluorescence was measured for 5 minutes at excitation and emission wavelengths of 380 nm and 460 nm, respectively, in kinetic mode. For IC50determination, 0.5 μL inhibitor solution was added to the reaction mixture. The reaction rates were used to calculate IC50with KaleidaGraph.
# [1] = trophozoites, 72 hr, anaerobic, ATP level
# [2] = Giardia duodenalis, trophozoites, 72 hr, anaerobic, ATP level
SMILES,IC50 (G. lamblia WB; 72 h),"IC50 (G. lamblia GS; Giardia duodenalis, 72 h)",IC50 (E. histolytica HM1: IMSS; 72 h),IC50 (Recombinant human MetAP2),IC50 (G. lamblia WB; [1]),IC50 (G. lamblia GS; [2]),IC50 (E. histolytica HM1: IMSS; [1]),IC50 (G. lamblia GS; [1])
CO[C@@H]1[C@H](OC(=O)N2CC=C(B(O)O)CC2)CC[C@]2(CO2)[C@H]1[C@@]1(C)O[C@@H]1CC=C(C)C [No 53],> 1000 nM,101 to 1000 nM,> 1000 nM,< 0.01 µM,,,,
COC(=O)c1ccc(B(O)O)c(NC(=O)OC2CCC3(CO3)C(C3(C)OC3CC=C(C)C)C2OC)c1 (stereo not shown) [No 26],> 1000 nM,101 to 1000 nM,> 1000 nM,,,,,
COC1C(OC(=O)NCc2ccc(F)cc2B(O)O)CCC2(CO2)C1C1(C)OC1CC=C(C)C (stereo not shown) [No 32],> 1000 nM,101 to 1000 nM,> 1000 nM,,,,,
CO[C@@H]1[C@H](OC(=O)Nc2cc(B(O)O)cc(C(=O)O)c2)CC[C@]2(CO2)[C@H]1[C@@]1(C)O[C@@H]1CC=C(C)C [No 21],101 to 1000 nM,101 to 1000 nM,101 to 1000 nM,< 0.01 µM,,,,
CO[C@@H]1[C@H](OC(=O)Nc2ccc(F)c(F)c2B(O)O)CC[C@]2(CO2)[C@H]1[C@@]1(C)O[C@@H]1CC=C(C)C [No 34],,,,< 0.01 µM,> 1000 nM,101 to 1000 nM,> 1000 nM,
COC1C(OC(=O)N2CCOc3c(B(O)O)cncc32)CCC2(CO2)C1C1(C)OC1CC=C(C)C (stereo not shown) [No 66],> 1000 nM,101 to 1000 nM,> 1000 nM,,,,,
CO[C@@H]1[C@H](OC(=O)N(C)c2cc(B(O)O)c3occc3c2)CC[C@]2(CO2)[C@H]1[C@@]1(C)O[C@@H]1CC=C(C)C [No 54],> 1000 nM,101 to 1000 nM,> 1000 nM,< 0.01 µM,,,,
COc1nsc(CNC(=O)OC2CCC3(CO3)C(C3(C)OC3CC=C(C)C)C2OC)c1B(O)O (stereo not shown) [No 57],> 1000 nM,101 to 1000 nM,> 1000 nM,,,,,
CO[C@@H]1[C@H](OC(=O)NCc2cc(F)ccc2B(O)O)CC[C@]2(CO2)[C@H]1[C@@]1(C)O[C@@H]1CC=C(C)C [No 31],101 to 1000 nM,101 to 1000 nM,> 1000 nM,< 0.01 µM,,,,
CO[C@@H]1[C@H](OC(=O)Nc2cccc(B(O)O)c2Cl)CC[C@]2(CO2)[C@H]1[C@@]1(C)O[C@@H]1CC=C(C)C [No 45],> 1000 nM,101 to 1000 nM,> 1000 nM,< 0.01 µM,,,,
CO[C@@H]1[C@H](OC(=O)Nc2ccc3c(c2)B(O)OC3C)CC[C@]2(CO2)[C@H]1[C@@]1(C)O[C@@H]1CC=C(C)C (stereo partly shown) [No 7],,,,< 0.01 µM,,,,< 10 nM
CO[C@@H]1[C@H](OC(=O)NC(CF)c2ccc(B(O)O)cc2)CC[C@]2(CO2)[C@H]1[C@@]1(C)O[C@@H]1CC=C(C)C (stereo partly shown) [No 48],> 1000 nM,101 to 1000 nM,> 1000 nM,< 0.01 µM,,,,
CO[C@@H]1[C@H](OC(=O)Nc2ccc3c(c2)C(C)(C)OB3O)CC[C@]2(CO2)[C@H]1[C@@]1(C)O[C@@H]1CC=C(C)C [No 3],< 10 nM,< 10 nM,< 10 nM,< 0.01 µM,,,,
CO[C@@H]1[C@H](OC(=O)N(C)c2ccc(B(O)O)cc2)CC[C@]2(CO2)[C@H]1[C@@]1(C)O[C@@H]1CC=C(C)C [No 20],,,,< 0.01 µM,101 to 1000 nM,101 to 1000 nM,101 to 1000 nM,
CO[C@@H]1[C@H](OC(=O)Nc2ccc(B(O)O)c(F)c2)CC[C@]2(CO2)[C@H]1[C@@]1(C)O[C@@H]1CC=C(C)C [No 65],101 to 1000 nM,< 10 nM,> 1000 nM,< 0.01 µM,,,,
CO[C@@H]1[C@H](OC(=O)N(C)c2ccc3c(c2)B(O)OCC3)CC[C@]2(CO2)[C@H]1[C@@]1(C)O[C@@H]1CC=C(C)C [No 16],,,,< 0.01 µM,101 to 1000 nM,101 to 1000 nM,101 to 1000 nM,
